≈ marks a conversion by molar mass, not a printed value.
What was measured:
[1] = system: colon cancer HCT116; test: Sensitivity of HCT116 to DOX; format: cell-based, human
[2] = system: HCT116 colon cancer tumors; test: HCT116 tumor growth rates; format: in vivo, male nu/nu mice; details: intravenous injection, DOX 3 mg/kg
Procedure: Tumors: HCT116 colon cancer tumors were inoculated subcutaneously to the right flanks of male nu/nu mice. (See, FIGS. 24 and 25). In contrast to A2780 tumors, this tumor is characterized as being poorly vascularized (See, FIG. 24).
(§1) DOX-loaded micelles were injected either intravenously (i.v.) or intratumorally (i.t.) at a DOX dosage of 3 mg/kg (growth rate studies) or 6 mg/kg (biodistribution studies).
Tumor growth rates: Animals were randomly assigned to experimental and control groups, comprising five animals each. Intravenous treatment was initiated when tumor volume reached 50-100 mm^3. Intratumoral treatment was initiated when tumor volume reached 150-300 mm^3. A total of four injections were delivered twice a week for two weeks. For intratumoral injections, four injections of 25 μl drug solution each were made into four sites of a tumor.

[3] = system: HCT116 colon cancer tumors; test: HCT116 biodistribution, DOX uptake by cells of organs by flow cytometry; format: in vivo, male nu/nu mice
Procedure: as §1
Biodistribution studies: DOX uptake by the cells of various organs was measured by flow cytometry. Mice were intratumorally injected with either free (i.e., PBS-dissolved) DOX or micelle-encapsulated DOX. Ten hours after injection of the composition, mice were sacrificed and tumors and various organs were excised and digested in trypsin.

[4] = ten hours after intratumoral injection

- IC50 [1]: 1.5 µg/mL (≈ 2.76 µM)
- DOX internalization by tumor cells ([3]; ten hours after i.v. injection): did not deliver drug to tumor cells
- DOX in spleen cells [3, 4]: slightly higher
- DOX uptake by heart cells [3, 4]: significant uptake
SMILES: COc1cccc2c1C(=O)c1c(O)c3c(c(O)c1C2=O)C[C@@](O)(C(=O)CO)C[C@@H]3O[C@H]1C[C@H](N)[C@H](O)[C@H](C)O1 [DOX, doxorubicin]
- tumor response [2]: high resistance to chemotherapy
